The text below walks through data of ChEMBL document CHEMBL1131900, “4-Hydroxy-1-[3-(5-(1,2,4-triazol-4-yl)-1H-indol-3-yl)propyl]piperidines: selective h5-HT1D agonists for the treatment of migraine” (Bioorg Med Chem Lett, 1999).

Structures are written as SMILES.

Test [1] concerns the target T1, 5-hydroxytryptamine receptor 1D (Homo sapiens, UniProt P28221). Briefly: Maximum stimulation of [35S]GTP gamma-S binding expressed relative to the maximal effect produced by 5-hydroxytryptamine 1D receptor. The test is classed as functional.
For test [2], the target named is T1, 5-hydroxytryptamine receptor 1D. Briefly: Measurement of agonist-induced [35S]-GTP gamma-S binding in CHO cells stably transfected with 5-hydroxytryptamine 1D receptor. It counts as functional, cell-based.
The target in test [3] is 5-hydroxytryptamine receptor 1B (Homo sapiens, UniProt P28222). Briefly: Ability to displace [3H]5-HT from recombinant human 5-hydroxytryptamine 1B receptor stably expressed in CHO cells determined in vitro. It counts as cell-based.
Test [4] concerns the target Serotonin 1 receptors; 5-HT1B & 5-HT1D (Homo sapiens) (UniProt P28222+P28221). Briefly: Binding selectivity for h5-HT1D receptor to that of h5-HT1B receptor. The test is classed as protein assay.
Test [5] deals with T1, 5-hydroxytryptamine receptor 1D. Briefly: Ability to displace [3H]-5-HT from recombinant human 5-hydroxytryptamine 1D receptor stably expressed in CHO cells determined in vitro. It counts as cell-based.

Chain of 5-hydroxytryptamine receptor 1B (P28222 whole entry): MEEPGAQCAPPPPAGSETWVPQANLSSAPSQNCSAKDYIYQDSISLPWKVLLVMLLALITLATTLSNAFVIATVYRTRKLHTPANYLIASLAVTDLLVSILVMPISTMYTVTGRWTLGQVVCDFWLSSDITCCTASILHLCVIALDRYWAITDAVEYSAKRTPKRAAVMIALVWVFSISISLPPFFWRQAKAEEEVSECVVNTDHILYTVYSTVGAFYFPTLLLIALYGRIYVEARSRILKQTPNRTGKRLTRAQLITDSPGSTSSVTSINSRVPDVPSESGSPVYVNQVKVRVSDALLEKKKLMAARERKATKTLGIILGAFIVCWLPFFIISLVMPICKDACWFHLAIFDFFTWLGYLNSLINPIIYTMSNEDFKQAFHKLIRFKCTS
T1 sequence (P28221 whole entry): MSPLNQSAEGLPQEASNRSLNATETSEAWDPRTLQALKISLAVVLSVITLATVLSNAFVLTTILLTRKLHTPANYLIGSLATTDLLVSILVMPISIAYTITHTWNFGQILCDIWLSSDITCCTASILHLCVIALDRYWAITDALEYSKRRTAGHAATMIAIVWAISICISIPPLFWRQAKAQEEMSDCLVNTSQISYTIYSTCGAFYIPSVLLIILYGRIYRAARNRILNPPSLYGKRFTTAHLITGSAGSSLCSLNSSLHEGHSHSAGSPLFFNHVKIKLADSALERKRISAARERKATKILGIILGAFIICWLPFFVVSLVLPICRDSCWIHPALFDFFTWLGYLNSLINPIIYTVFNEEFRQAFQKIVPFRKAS

A word on the IC50: it is the concentration that inhibits the measured activity by half. In turn, `CC(C)(C)OC(=O)NCC1(O)CCN(CCCc2c[nH]c3ccc(-n4cnnc4)cc23)CC1` came in with an Activity in test [1] of 86%. Moreover, in test [2], the ED50 came out at 9.7 nM. Moreover, the IC50 in test [3] is 340 nM; in test [5], 21 nM. In test [4], the Ratio amounted to 16.

Compound `CN(CC1CC1)CC1(O)CCN(CCCc2c[nH]c3ccc(-n4cnnc4)cc23)CC1` showed an Activity in test [1] of 79%. The ED50 in test [2] turned out to be 1.1 nM. For the same compound, the IC50 in test [3] stood at 27 nM; in test [5], 1.35 nM. Moreover, in test [4], the Ratio came out at 20.

As to `CC1(C)CCCN(CC2(O)CCN(CCCc3c[nH]c4ccc(-n5cnnc5)cc34)CC2)C1`, the Activity in test [1] worked out at 67%. The ED50 in test [2] stood at 0.9 nM. Further, the results for the IC50 in test [3] and in test [5] were 19 nM and 0.65 nM, respectively. For the same compound, in test [4], the Ratio worked out at 29.

In test [1], `CN(CC(C)(C)C)CC1(O)CCN(CCCc2c[nH]c3ccc(-n4cnnc4)cc23)CC1` gave an Activity of 60%. In test [2], this compound yielded an ED50 of 1.6 nM. Also, the IC50 in test [3] turned out to be 61 nM; in test [5] it was 1.8 nM. Further, the Ratio in test [4] was 34.

For the compound `CC(C)CN(C)CC1(O)CCN(CCCc2c[nH]c3ccc(-n4cnnc4)cc23)CC1`, the Activity in test [1] was determined as 95%. The compound further registered an ED50 in test [2] of 1.7 nM. Moreover, the IC50 in test [3] was found to be 30 nM; in test [5], 0.65 nM. In addition, the Ratio in test [4] is 47.

In the case of `OC1(CNCC2CC2)CCN(CCCc2c[nH]c3ccc(-n4cnnc4)cc23)CC1`, the IC50 in test [3] is 57 nM; in test [5] it was 4.5 nM. For the same compound, the Ratio in test [4] was 13.

For the compound `CC(=O)Nc1ccc(CNCC2(O)CCN(CCCc3c[nH]c4ccc(-n5cnnc5)cc34)CC2)cc1`, the Activity in test [1] is 102%. The compound also yielded an ED50 in test [2] of 14 nM. The values for the IC50 in test [3] and in test [5] were 30 nM and 11 nM, respectively. Moreover, the Ratio in test [4] was 3.

`OC1(Cc2ccccc2)CCN(CCCc2c[nH]c3ccc(-n4cnnc4)cc23)CC1` registered an Activity in test [1] of 64%. Further, the ED50 in test [2] was 0.25 nM. Besides, the IC50 is 32 nM in test [3] and 0.1 nM in test [5]. The Ratio in test [4] was 251.

`Cc1ccccc1CN(C)CC1(O)CCN(CCCc2c[nH]c3ccc(-n4cnnc4)cc23)CC1`: the Activity in test [1] came to 90%. The same compound returned an ED50 in test [2] of 3.7 nM. The IC50 stood at 89 nM in test [3] and 1.3 nM in test [5]. For the same compound, in test [4], the Ratio was 68.

`OC1(CNCc2ccccc2)CCN(CCCc2c[nH]c3ccc(-n4cnnc4)cc23)CC1` registered an Activity in test [1] of 79%. The same compound came in with an ED50 in test [2] of 2.2 nM. For the same compound, the results for the IC50 in test [3] and in test [5] were 47 nM and 0.45 nM, respectively. In addition, the Ratio in test [4] came out at 106.

`CC(C)(C)CNCC1(O)CCN(CCCc2c[nH]c3ccc(-n4cnnc4)cc23)CC1`: the values for the IC50 in test [3] and in test [5] were 85 nM and 7.3 nM, respectively. The Ratio in test [4] stood at 12.

In test [1], `OC1(CNCc2ccccn2)CCN(CCCc2c[nH]c3ccc(-n4cnnc4)cc23)CC1` gave an Activity of 96%. In test [2], this compound gave an ED50 of 3.2 nM. Moreover, the figures for the half-inhibitory concentration (IC50) in test [3] and in test [5] were 55 nM and 3.2 nM, respectively. The Ratio in test [4] came out at 17.

`CN(CC1CCCCC1)CC1(O)CCN(CCCc2c[nH]c3ccc(-n4cnnc4)cc23)CC1` returned an Activity in test [1] of 69%. In test [2], this compound yielded an ED50 of 1.4 nM. In addition, the IC50 was determined as 27 nM in test [3] and 1.2 nM in test [5]. For the same compound, the Ratio in test [4] was 22.

For `Cc1ccccc1CNCC1(O)CCN(CCCc2c[nH]c3ccc(-n4cnnc4)cc23)CC1`, the IC50 in test [3] is 83 nM; in test [5], 4 nM. Further, the Ratio in test [4] turned out to be 21.

With `CN(Cc1ccccc1)CC1(O)CCN(CCCc2c[nH]c3ccc(-n4cnnc4)cc23)CC1`, the Activity in test [1] was 91%. The ED50 in test [2] stood at 3.8 nM. The IC50 in test [3] turned out to be 96 nM; in test [5], 1.2 nM. Also, the Ratio in test [4] stood at 80.
